Measurements taken from patent US20240409536A1, “COMPOUNDS AND METHODS FOR MODULATING SPLICING” (REMIX THERAPEUTICS INC., priority 2021, published 2024).

How the values were obtained:
SMN2 mRNA = experiment: Gene panel canonical junction qPCR assay, SMN2 CJ mRNA decrease; assay type: cell-based, human; conditions: Homo sapiens, canonical junction qPCR, read-out: SMN2 IC50 (decrease in CJ mRNA levels)
Summary of the method: (§1)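 A673 or K562 cells were treated with compound, and lysates underwent cDNA synthesis and qPCR with a CY5 5′-nuclease probe or primer spanning the canonical exon junction. ΔCt versus GAPDH, GUSB or PPIA was normalized to DMSO (2^(−ΔΔCt)), converted to percentage response and fitted four-parameter logistic for IC50.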

Target C mRNA = experiment: Gene panel canonical junction qPCR assay, Target C CJ mRNA decrease; assay type: cell-based; conditions: Homo sapiens, canonical junction qPCR, read-out: Target C IC50 (decrease in CJ mRNA levels)
Summary of the method: as §1

HiBiT-tagged HTT protein = experiment: HiBiT protein abundance assay, HTT (K562 HiBiT knock-in cells); assay type: cell-based, human; conditions: 24 hours
Summary of the method: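 K562 cells with endogenous HiBiT knock-in tag, 10-point 3-fold dilutions (top 10 μM final, ≤0.25% DMSO), 24 h at 37 °C. Lytic Nano-Glo HiBiT luminescence, normalized to DMSO and unmodified K562 baselines; IC50 is concentration giving 50% protein abundance from four-parameter fit.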

Target C = experiment: HiBiT protein abundance assay, Target C (K562 HiBiT knock-in cells); assay type: cell-based, human; conditions: 24 hours
Summary of the method: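 K562 knock-in cells (10000/well, IMDM+1% FBS) treated 24 h at 37 °C with 10-point 3-fold dilutions, top final 10 μM, DMSO ≤0.25%. HiBiT lytic luminescence read; response normalized to unmodified K562 and DMSO-treated controls. IC50 interpolated at 50% abundance by four-parameter logistic fit.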

Compound | IC50 (SMN2 mRNA) | IC50 (Target C mRNA) | IC50 (HiBiT-tagged HTT protein) | IC50 (Target C)
CN[C@@H]1CCN(c2ccc(C(=O)Nc3cc(F)c4nc(C)cn4c3)c3nccnc23)C1 (single isomer, unassigned) [Compound 193, N-{8-fluoro-2-methylimidazo[1,2-a]pyridin-6-yl}-8-[3-(methylamino)pyrrolidin-1-yl]quinoxaline-5-carboxamide] | < 100 nM | > 10000 nM | 1000 to 10000 nM | 1000 to 10000 nM
CN[C@H]1CCN(c2ccc(C(=O)Nc3cc(F)c4nc(C)cn4c3)c3nccnc23)C1 (single isomer, unassigned) [Compound 194, N-{8-fluoro-2-methylimidazo[1,2-a]pyridin-6-yl}-8-[3-(methylamino)pyrrolidin-1-yl]quinoxaline-5-carboxamide] | < 100 nM | 1000 to 10000 nM | 1000 to 10000 nM | 100 to 1000 nM
Cc1cn2nc(NC(=O)c3ccc(N4CCNCC4)c4ccnnc34)cc(C)c2n1 [Compound 100] | 100 to 1000 nM | 100 to 1000 nM | 100 to 1000 nM | 100 to 1000 nM
Cc1cn2cc(NC(=O)c3ccc(N4CCNC5(CC5)C4)c4ccnnc34)cc(F)c2n1 [Compound 105] | < 100 nM | > 10000 nM | 1000 to 10000 nM | 1000 to 10000 nM
Cc1cn2cc(NC(=O)c3ccc(N4C[C@H]5CC[C@@H](C4)N5)c4ccnnc34)cc(F)c2n1 [Compound 108] | < 100 nM | 1000 to 10000 nM | 1000 to 10000 nM | > 10000 nM
Cc1cn2nc(NC(=O)c3ccc(N4CCNCC4)c4ccnnc34)cc2c(C)n1 [Compound 123] | 1000 to 10000 nM | 1000 to 10000 nM | 1000 to 10000 nM | 1000 to 10000 nM
Cc1cn2cc(NC(=O)c3ccc(N4CCNCC4)c4ccnnc34)cc(C)c2n1 [Compound 125] | < 100 nM | 1000 to 10000 nM | 1000 to 10000 nM | 1000 to 10000 nM
O=C(Nc1cn[nH]c1)c1ccc(N2CCNCC2)c2ccnnc12 [Compound 126] | > 10000 nM | > 10000 nM | > 10000 nM | > 10000 nM
Cc1cn2cc(NC(=O)c3ccc(N4CCN(C)CC4)c4ccnnc34)cc(F)c2n1 [Compound 127] | < 100 nM | 1000 to 10000 nM | 1000 to 10000 nM | 1000 to 10000 nM
Cc1cn2cc(NC(=O)c3ccc(N4CCNC(C)C4)c4ccnnc34)cc(F)c2n1 (stereo not drawn) [Compound 128] | < 100 nM | 1000 to 10000 nM | 100 to 1000 nM | 100 to 1000 nM
CCC1CN(c2ccc(C(=O)Nc3cc(F)c4nc(C)cn4c3)c3nnccc23)CCN1 (stereo not drawn) [Compound 130] | < 100 nM | – | 1000 to 10000 nM | 1000 to 10000 nM
Cc1cn2cc(NC(=O)c3ccc(N4CC5(CNC5)C4)c4ccnnc34)cc(F)c2n1 [Compound 131] | < 100 nM | 1000 to 10000 nM | 100 to 1000 nM | 1000 to 10000 nM
Cc1cn2cc(NC(=O)c3ccc(N4CCC(N5CCCC5)C4)c4ccnnc34)cc(F)c2n1 (stereo not drawn) [Compound 133] | < 100 nM | 1000 to 10000 nM | 1000 to 10000 nM | 1000 to 10000 nM
Cc1cn2cc(NC(=O)c3ccc(N4CCC(N(C)C)C4)c4ccnnc34)cc(F)c2n1 (stereo not drawn) [Compound 134] | < 100 nM | 1000 to 10000 nM | 1000 to 10000 nM | 1000 to 10000 nM
Cc1cn2cc(NC(=O)c3ccc(N4CCC(N(C)C)CC4)c4ccnnc34)cc(F)c2n1 [Compound 137] | < 100 nM | 100 to 1000 nM | 100 to 1000 nM | 100 to 1000 nM
Cc1cn2cc(NC(=O)c3ccc(N4CCC(NC(C)(C)C)CC4)c4ccnnc34)cc(F)c2n1 [Compound 138] | < 100 nM | 1000 to 10000 nM | 1000 to 10000 nM | 1000 to 10000 nM

Compound | IC50 (SMN2 mRNA) | IC50 (Target C mRNA) | IC50 (HiBiT-tagged HTT protein) | IC50 (Target C)
Cc1cn2cc(NC(=O)c3ccc(C4CCN(C)CC4)c4ccnnc34)cc(F)c2n1 [Compound 140] | < 100 nM | > 10000 nM | 100 to 1000 nM | > 10000 nM
CCN1CCC(c2ccc(C(=O)Nc3cc(F)c4nc(C)cn4c3)c3nnccc23)CC1 [Compound 141] | < 100 nM | 1000 to 10000 nM | 1000 to 10000 nM | 1000 to 10000 nM
Cc1cn2cc(NC(=O)c3ccc(N4CCN[C@H](C)C4)c4ccnnc34)cc(F)c2n1 [Compound 146] | < 100 nM | > 10000 nM | 100 to 1000 nM | 1000 to 10000 nM
Cc1cn2cc(NC(=O)c3ccc(N4CCN(C)[C@H](C)C4)c4ccnnc34)cc(F)c2n1 [Compound 149] | < 100 nM | 1000 to 10000 nM | 1000 to 10000 nM | 1000 to 10000 nM
Cc1cn2cc(NC(=O)c3ccc(N4CCN(C)[C@@H](C)C4)c4ccnnc34)cc(F)c2n1 [Compound 150] | < 100 nM | 1000 to 10000 nM | 1000 to 10000 nM | 1000 to 10000 nM
CC[C@@H]1CN(c2ccc(C(=O)Nc3cc(F)c4nc(C)cn4c3)c3nnccc23)CCN1 [Compound 151] | < 100 nM | > 10000 nM | 1000 to 10000 nM | 1000 to 10000 nM
CC[C@H]1CN(c2ccc(C(=O)Nc3cc(F)c4nc(C)cn4c3)c3nnccc23)CCN1 [Compound 152] | < 100 nM | > 10000 nM | 1000 to 10000 nM | > 10000 nM
Cc1cn2cc(NC(=O)c3ccc(N4CCN5CCC[C@@H]5C4)c4ccnnc34)cc(F)c2n1 [Compound 153] | < 100 nM | 1000 to 10000 nM | 1000 to 10000 nM | 1000 to 10000 nM
Cc1cn2cc(NC(=O)c3ccc(N4CCN5CCC[C@H]5C4)c4ccnnc34)cc(F)c2n1 [Compound 154] | < 100 nM | 1000 to 10000 nM | 1000 to 10000 nM | 1000 to 10000 nM
Cc1cn2cc(NC(=O)c3ccc(N4C[C@H]5C[C@@H]4C5N(C)C)c4ccnnc34)cc(F)c2n1 (stereo partly drawn) [Compound 155] | 100 to 1000 nM | > 10000 nM | > 10000 nM | > 10000 nM
Cc1cn2cc(NC(=O)c3ccc(N(C)[C@@H]4C[C@H]5CC[C@@H](C4)N5)c4ccnnc34)cc(F)c2n1 [Compound 156] | 100 to 1000 nM | > 10000 nM | > 10000 nM | > 10000 nM
Cc1cc2c(N3CCNCC3)ccc(C(=O)Nc3cc(F)c4nc(C)cn4c3)c2nn1 [Compound 159] | < 100 nM | 1000 to 10000 nM | 100 to 1000 nM | 1000 to 10000 nM
Cc1cn2cc(NC(=O)c3ccc(N4C[C@@H](C)N[C@@H](C)C4)c4ccnnc34)cc(F)c2n1 [Compound 161, 5-(3,5-dimethylpiperazin-1-yl)-N-{8-fluoro-2-methylimidazo[1,2-a]pyridin-6-yl}cinnoline-8-carboxamide 2,2,2-trifluoroacetate] | < 100 nM | 1000 to 10000 nM | 1000 to 10000 nM | 1000 to 10000 nM
Cc1ccc2c(N3CCNCC3)ccc(C(=O)Nc3cc(F)c4nc(C)cn4c3)c2n1 [Compound 162, N-{8-fluoro-2-methylimidazo[1,2-a]pyridin-6-yl}-2-methyl-5-(piperazin-1-yl)quinoline-8-carboxam-ide, trifluoroacetic acid] | < 100 nM | 1000 to 10000 nM | 100 to 1000 nM | 1000 to 10000 nM
CC(=O)c1cc(NC(=O)c2ccc(N3CCNCC3)c3ccnnc23)cn2cc(C)nc12 [Compound 163, N-{8-acetyl-2-methylimidazo[1,2-a]pyridin-6-yl}-5-(piperazin-1-yl)cinnoline-8-carboxamide] | < 100 nM | > 10000 nM | > 10000 nM | > 10000 nM
